Results as given in ChEMBL document CHEMBL3044990, “Synthesis and Insecticidal Activity of 5-Dimethylamino-1, 3dithianes” (1991).
In brackets after ≈: the same amount, converted by molar mass.

Assays:
Assay type in all cases: functional
[1] = tested on: Henosepilachna vigintioctopunctata; assay: Insecticidal activity against third-instar larvae of Henosepilachna vigintioctopunctata assessed as mortality after 2 days; conditions: 48 h
[2] = tested on: Tetranychus urticae; assay: Insecticidal activity against Tetranychus urticae (two-spotted spider mite) in kidney bean plant leaf assessed as mortality at 500 ppm after 2 days; conditions: 48 h
[3] = tested on: Laodelphax striatellus; assay: Insecticidal activity against 3rd instar larva of Laodelphax striatella (small brown planthopper) assessed as mortality at 50 ppm after 6 days; conditions: 144 h
[4] = tested on: Chilo suppressalis; assay: Insecticidal activity against 5th instar larva of Chilo suppressalis assessed as mortality at 50 ug/g after 48 hr
[5] = tested on: Spodoptera litura; assay: Insecticidal activity against third-instar larvae of Spodoptera litura in soybean seedlings assessed as mortality at 500 ppm after 48 hr

CN(C)C1CSC(C#N)(c2ccccc2)SC1 (centres undefined)
LC50 [1]: 200 µg/mL (≈ 756 µM)
mortality at 500 ppm [2]: 10%
mortality at 50 ppm [3]: 15%
mortality [4]: 100%

CN(C)C1CSC(C#N)(c2ccc(F)cc2)SC1 (centres undefined)
LC50 [1]: 130 µg/mL (≈ 460 µM)
mortality at 500 ppm [2]: 100%
mortality at 50 ppm [3]: 15%
mortality [4]: 100%

CN(C)C1CSC(C#N)(c2ccc(Cl)cc2)SC1 (centres undefined)
LC50 [1]: 120 µg/mL (≈ 402 µM)
mortality at 500 ppm [2]: 100%
mortality at 50 ppm [3]: 75%
mortality [4]: 100%

CN(C)C1CSC(C#N)(c2ccc(Br)cc2)SC1 (centres undefined)
LC50 [1]: 25 µg/mL (≈ 72.8 µM)
mortality at 500 ppm [2]: 100%
mortality at 50 ppm [3]: 100%
mortality [4]: 100%

CN(C)C1CSC(C#N)(c2ccc([N+](=O)[O-])cc2)SC1 (centres undefined)
LC50 [1]: 18 µg/mL (≈ 58.2 µM)
mortality at 500 ppm [2]: 60%
mortality at 50 ppm [3]: 95%
mortality [4]: 100%

CN(C)C1CSC(C#N)(c2ccc(N)cc2)SC1 (centres undefined)
LC50 [1]: 25 µg/mL (≈ 89.5 µM)
mortality at 500 ppm [2]: 100%
mortality at 50 ppm [3]: 45%
mortality [4]: 100%

COc1ccc(C2(C#N)SCC(N(C)C)CS2)cc1 (centres undefined)
LC50 [1]: 35 µg/mL (≈ 119 µM)
mortality at 500 ppm [2]: 100%
mortality at 50 ppm [3]: 20%
mortality [4]: 100%

Cc1ccc(C2(C#N)SCC(N(C)C)CS2)cc1 (centres undefined)
LC50 [1]: 25 µg/mL (≈ 89.8 µM)
mortality at 500 ppm [2]: 100%
mortality at 50 ppm [3]: 85%
mortality [4]: 100%

CN(C)C1CSC(C#N)(c2cccc(F)c2)SC1 (centres undefined)
LC50 [1]: 18 µg/mL (≈ 63.7 µM)
mortality at 500 ppm [2]: 100%
mortality at 50 ppm [3]: 85%
mortality [4]: 100%

CN(C)C1CSC(C#N)(c2cccc(Cl)c2)SC1 (centres undefined)
LC50 [1]: 10 µg/mL (≈ 33.5 µM)
mortality at 500 ppm [2]: 80%
mortality at 50 ppm [3]: 85%
mortality [4]: 100%

CN(C)C1CSC(C#N)(c2cccc(Br)c2)SC1 (centres undefined)
LC50 [1]: 15 µg/mL (≈ 43.7 µM)
mortality at 500 ppm [2]: 100%
mortality at 50 ppm [3]: 70%
mortality [4]: 100%

CN(C)C1CSC(C#N)(c2cccc([N+](=O)[O-])c2)SC1 (centres undefined)
LC50 [1]: 15 µg/mL (≈ 48.5 µM)
mortality at 500 ppm [2]: 100%
mortality at 50 ppm [3]: 70%
mortality [4]: 100%

CN(C)C1CSC(C#N)(c2cccc(C(F)(F)F)c2)SC1 (centres undefined)
LC50 [1]: 18 µg/mL (≈ 54.1 µM)
mortality at 500 ppm [2]: 100%
mortality at 50 ppm [3]: 95%
mortality [4]: 100%

Cc1cccc(C2(C#N)SCC(N(C)C)CS2)c1 (centres undefined)
LC50 [1]: 120 µg/mL (≈ 431 µM)
mortality at 500 ppm [2]: 80%
mortality at 50 ppm [3]: 30%
mortality [4]: 100%

CN(C)C1CSC(C#N)(c2ccccc2F)SC1 (centres undefined)
LC50 [1]: 15 µg/mL (≈ 53.1 µM)
mortality at 500 ppm [2]: 100%
mortality at 50 ppm [3]: 55%
mortality [4]: 100%

CN(C)C1CSC(C#N)(c2ccccc2Cl)SC1 (centres undefined)
LC50 [1]: 15 µg/mL (≈ 50.2 µM)
mortality at 500 ppm [2]: 100%
mortality at 50 ppm [3]: 95%
mortality [4]: 100%

CN(C)C1CSC(C#N)(c2ccccc2Br)SC1 (centres undefined)
LC50 [1]: 10 µg/mL (≈ 29.1 µM)
mortality at 500 ppm [2]: 100%
mortality at 50 ppm [3]: 85%
mortality [4]: 100%

CN(C)C1CSC(C#N)(c2ccccc2[N+](=O)[O-])SC1 (centres undefined)
LC50 [1]: 19 µg/mL (≈ 61.4 µM)
mortality at 500 ppm [2]: 70%
mortality at 50 ppm [3]: 85%
mortality [4]: 100%

COc1ccccc1C1(C#N)SCC(N(C)C)CS1 (centres undefined)
LC50 [1]: 30 µg/mL (≈ 102 µM)
mortality at 500 ppm [2]: 100%
mortality at 50 ppm [3]: 20%
mortality [4]: 100%

Cc1ccccc1C1(C#N)SCC(N(C)C)CS1 (centres undefined)
LC50 [1]: 100 µg/mL (≈ 359 µM)
mortality at 500 ppm [2]: 60%
mortality at 50 ppm [3]: 20%
mortality [4]: 100%

CN(C)C1CSC(C#N)(c2ccc(Cl)c(Cl)c2)SC1 (centres undefined)
LC50 [1]: 12 µg/mL (≈ 36 µM)
mortality at 500 ppm [2]: 50%
mortality at 50 ppm [3]: 40%
mortality [4]: 100%

CN(C)C1CSC(C#N)(c2c(Cl)cccc2Cl)SC1 (centres undefined)
LC50 [1]: 15 µg/mL (≈ 45 µM)
mortality at 500 ppm [2]: 80%
mortality at 50 ppm [3]: 99%
mortality [4]: 100%

CN(C)C1CSC(C#N)(c2cc(Cl)cc(Cl)c2)SC1 (centres undefined)
LC50 [1]: 133 µg/mL (≈ 399 µM)
mortality at 500 ppm [2]: 100%
mortality at 50 ppm [3]: 55%
mortality [4]: 100%

CN(C)C1CSC(C#N)(c2cc(F)ccc2F)SC1 (centres undefined)
LC50 [1]: 30 µg/mL (≈ 99.9 µM)
mortality at 500 ppm [2]: 100%
mortality at 50 ppm [3]: 30%
mortality [4]: 100%

Cc1ccc(C)c(C2(C#N)SCC(N(C)C)CS2)c1 (centres undefined)
LC50 [1]: 25 µg/mL (≈ 85.5 µM)
mortality at 500 ppm [2]: 100%
mortality at 50 ppm [3]: 15%
mortality [4]: 100%

CN(C)C1CSC(C#N)(C(N)=O)SC1 (centres undefined)
mortality at 500 ppm [5]: 100%
LC50 [1]: 30 µg/mL (≈ 130 µM)
mortality at 500 ppm [2]: 100%
mortality at 50 ppm [3]: 35%
mortality [4]: 100%

CNC(=O)C1(C#N)SCC(N(C)C)CS1 (centres undefined)
mortality at 500 ppm [5]: 90%
LC50 [1]: 25 µg/mL (≈ 102 µM)
mortality at 500 ppm [2]: 100%
mortality at 50 ppm [3]: 50%
mortality [4]: 100%

CCNC(=O)C1(C#N)SCC(N(C)C)CS1 (centres undefined)
mortality at 500 ppm [5]: 80%
LC50 [1]: 6 µg/mL (≈ 23.1 µM)
mortality at 500 ppm [2]: 90%
mortality at 50 ppm [3]: 20%
mortality [4]: 100%

CCCNC(=O)C1(C#N)SCC(N(C)C)CS1 (centres undefined)
mortality at 500 ppm [5]: 60%
LC50 [1]: 11 µg/mL (≈ 40.2 µM)
mortality at 500 ppm [2]: 100%
mortality at 50 ppm [3]: 20%
mortality [4]: 100%

CC(C)NC(=O)C1(C#N)SCC(N(C)C)CS1 (centres undefined)
mortality at 500 ppm [5]: 40%
LC50 [1]: 40 µg/mL (≈ 146 µM)
mortality at 500 ppm [2]: 100%
mortality at 50 ppm [3]: 20%
mortality [4]: 100%

CCCCNC(=O)C1(C#N)SCC(N(C)C)CS1 (centres undefined)
mortality at 500 ppm [5]: 80%
LC50 [1]: 40 µg/mL (≈ 139 µM)
mortality at 500 ppm [2]: 100%
mortality at 50 ppm [3]: 20%
mortality [4]: 100%

CCC(C)NC(=O)C1(C#N)SCC(N(C)C)CS1 (centres undefined)
mortality at 500 ppm [5]: 80%
LC50 [1]: 33 µg/mL (≈ 115 µM)
mortality at 500 ppm [2]: 100%
mortality at 50 ppm [3]: 25%
mortality [4]: 100%

CN(C)C1CSC(C#N)(C(=O)NC(C)(C)C)SC1 (centres undefined)
mortality at 500 ppm [5]: 80%
LC50 [1]: 20 µg/mL (≈ 69.6 µM)
mortality at 500 ppm [2]: 100%
mortality at 50 ppm [3]: 45%
mortality [4]: 100%

CCCCCNC(=O)C1(C#N)SCC(N(C)C)CS1 (centres undefined)
mortality at 500 ppm [5]: 50%
LC50 [1]: 10 µg/mL (≈ 33.2 µM)
mortality at 500 ppm [2]: 50%
mortality at 50 ppm [3]: 29%
mortality [4]: 100%

CCCCCCNC(=O)C1(C#N)SCC(N(C)C)CS1 (centres undefined)
mortality at 500 ppm [5]: 70%
LC50 [1]: 10 µg/mL (≈ 31.7 µM)
mortality at 500 ppm [2]: 100%
mortality at 50 ppm [3]: 65%
mortality [4]: 100%

CCCCCCCNC(=O)C1(C#N)SCC(N(C)C)CS1 (centres undefined)
mortality at 500 ppm [5]: 80%
LC50 [1]: 23 µg/mL (≈ 69.8 µM)
mortality at 500 ppm [2]: 90%
mortality at 50 ppm [3]: 80%
mortality [4]: 100%

CCCCCCCCNC(=O)C1(C#N)SCC(N(C)C)CS1 (centres undefined)
mortality at 500 ppm [5]: 80%
LC50 [1]: 23 µg/mL (≈ 66.9 µM)
mortality at 500 ppm [2]: 100%
mortality at 50 ppm [3]: 80%
mortality [4]: 100%

CCCCCCCCCNC(=O)C1(C#N)SCC(N(C)C)CS1 (centres undefined)
mortality at 500 ppm [5]: 90%
LC50 [1]: 23 µg/mL (≈ 64.3 µM)
mortality at 500 ppm [2]: 100%
mortality at 50 ppm [3]: 100%
mortality [4]: 100%

CCCCCCCCCCNC(=O)C1(C#N)SCC(N(C)C)CS1 (centres undefined)
mortality at 500 ppm [5]: 50%
LC50 [1]: 20 µg/mL (≈ 53.8 µM)
mortality at 500 ppm [2]: 90%
mortality at 50 ppm [3]: 85%
mortality [4]: 100%

CCCCCCCCCCCCCCNC(=O)C1(C#N)SCC(N(C)C)CS1 (centres undefined)
mortality at 500 ppm [5]: 70%
LC50 [1]: 33 µg/mL (≈ 77.2 µM)
mortality at 500 ppm [2]: 70%
mortality at 50 ppm [3]: 25%
mortality [4]: 100%

CN(C)C1CSC(C#N)(C(=O)NC2CC2)SC1 (centres undefined)
mortality at 500 ppm [5]: 50%
LC50 [1]: 8 µg/mL (≈ 29.5 µM)
mortality at 500 ppm [2]: 40%
mortality at 50 ppm [3]: 25%
mortality [4]: 100%

CN(C)C1CSC(C#N)(C(=O)NC2CCCCC2)SC1 (centres undefined)
mortality at 500 ppm [5]: 50%
LC50 [1]: 25 µg/mL (≈ 79.7 µM)
mortality at 500 ppm [2]: 80%
mortality at 50 ppm [3]: 40%
mortality [4]: 100%

CN(C)C(=O)C1(C#N)SCC(N(C)C)CS1 (centres undefined)
mortality at 500 ppm [5]: 80%
LC50 [1]: 11 µg/mL (≈ 42.4 µM)
mortality at 500 ppm [2]: 70%
mortality at 50 ppm [3]: 20%
mortality [4]: 100%

CCN(CC)C(=O)C1(C#N)SCC(N(C)C)CS1 (centres undefined)
mortality at 500 ppm [5]: 80%
LC50 [1]: 15 µg/mL (≈ 52.2 µM)
mortality at 500 ppm [2]: 80%
mortality at 50 ppm [3]: 24%
mortality [4]: 100%

CC(C)N(C(=O)C1(C#N)SCC(N(C)C)CS1)C(C)C (centres undefined)
mortality at 500 ppm [5]: 60%
LC50 [1]: 16 µg/mL (≈ 50.7 µM)
mortality at 500 ppm [2]: 100%
mortality at 50 ppm [3]: 26%
mortality [4]: 100%

CN(C)C1CSC(C#N)(C(=O)N2CCCC2)SC1 (centres undefined)
mortality at 500 ppm [5]: 20%
LC50 [1]: 10 µg/mL (≈ 35 µM)
mortality at 500 ppm [2]: 100%
mortality at 50 ppm [3]: 25%
mortality [4]: 100%

CN1CCN(C(=O)C2(C#N)SCC(N(C)C)CS2)CC1 (centres undefined)
mortality at 500 ppm [5]: 20%
LC50 [1]: 20 µg/mL (≈ 63.6 µM)
mortality at 500 ppm [2]: 100%
mortality at 50 ppm [3]: 35%
mortality [4]: 100%

CN(C)C1CSSC1 [NEREISTOXIN]
mortality at 500 ppm [5]: 90%
mortality at 500 ppm [2]: 50%
mortality at 50 ppm [3]: 80%
mortality [4]: 100%
